In ChEMBL document CHEMBL6153126, “Design, Synthesis, and Activity Evaluation of Novel Bifenamide Dual-Target Antibacterial Inhibitors and Carrier Based on Infectious Microenvironment” (J Med Chem, 2025):
Activity calls are given as the source filed them. No cut-off for these calls is given here.

Experiments:
HeLa = assay: Cytotoxicity against human HeLa cells incubated for 24 hrs by CCK-8 assay; format: functional, cell-based
[1] = molecular target: Programmed cell death protein 1/Programmed cell death 1 ligand 1 (Homo sapiens, UniProt Q9NZQ7); assay: Inhibition of PD-1/PD-L1 (unknown origin) protein-protein interaction preincubated for 15 mins followed by PD-1-Eu addition and measured after 90 mins by TR-FRET assay; format: protein-complex assay
Sequence of Programmed cell death protein 1/Programmed cell death 1 ligand 1 (Q15116 whole entry): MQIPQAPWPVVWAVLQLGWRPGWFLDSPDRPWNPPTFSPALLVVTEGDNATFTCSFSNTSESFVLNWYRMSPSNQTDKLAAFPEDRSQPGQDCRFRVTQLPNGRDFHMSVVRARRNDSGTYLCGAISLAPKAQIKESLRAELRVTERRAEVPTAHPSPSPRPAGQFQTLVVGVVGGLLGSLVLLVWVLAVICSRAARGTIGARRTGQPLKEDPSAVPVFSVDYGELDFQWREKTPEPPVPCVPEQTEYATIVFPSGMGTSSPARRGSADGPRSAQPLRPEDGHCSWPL
Sequence of Programmed cell death protein 1/Programmed cell death 1 ligand 1 (Q9NZQ7 whole entry): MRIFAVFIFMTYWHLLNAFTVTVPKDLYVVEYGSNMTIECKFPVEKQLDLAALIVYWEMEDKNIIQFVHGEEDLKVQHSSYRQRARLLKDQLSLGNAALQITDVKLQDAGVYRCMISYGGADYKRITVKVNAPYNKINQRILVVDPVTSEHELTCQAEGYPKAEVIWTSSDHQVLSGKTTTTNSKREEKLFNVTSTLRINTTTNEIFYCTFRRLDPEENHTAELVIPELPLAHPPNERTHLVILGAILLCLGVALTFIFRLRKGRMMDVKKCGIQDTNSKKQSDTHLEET

Klebsiella pneumoniae [2] = assay: Antimicrobial activity against Klebsiella pneumoniae ATCC 13883 assessed as inhibition of microbial growth incubated for 64 hrs by broth-microdilution assay; format: functional
Escherichia coli = assay: Antimicrobial activity against Escherichia coli ATCC 8739 assessed as inhibition of microbial growth incubated for 64 hrs by broth-microdilution assay; format: functional
Salmonella typhimurium = assay: Antimicrobial activity against Salmonella typhimurium ATCC 14028 assessed as inhibition of microbial growth incubated for 64 hrs by broth-microdilution assay; format: functional, Salmonella enterica subsp. enterica serovar Typhimurium; details: Salmonella enterica
Pseudomonas aeruginosa [3] = assay: Antimicrobial activity against Pseudomonas aeruginosa ATCC 9027 assessed as inhibition of microbial growth incubated for 64 hrs by broth-microdilution assay; format: functional
Klebsiella pneumoniae [4] = assay: Antimicrobial activity against Klebsiella pneumoniae ATCC 13883 assessed as inhibition zone; format: functional
A549 = assay: Cytotoxicity against human A549 cells incubated for 24 hrs by CCK-8 assay; format: functional, cell-based; details: A549, 24 h
Pseudomonas aeruginosa [5] = assay: Antimicrobial activity against Pseudomonas aeruginosa ATCC 9027 assessed as inhibition zone; format: functional; details: time 64 hrs
[6] = molecular target: T1, UDP-3-O-acyl-N-acetylglucosamine deacetylase (Escherichia coli K-12, UniProt P0A725); assay: Inhibition of Escherichia coli LpxC
T1 sequence (P0A725 whole entry): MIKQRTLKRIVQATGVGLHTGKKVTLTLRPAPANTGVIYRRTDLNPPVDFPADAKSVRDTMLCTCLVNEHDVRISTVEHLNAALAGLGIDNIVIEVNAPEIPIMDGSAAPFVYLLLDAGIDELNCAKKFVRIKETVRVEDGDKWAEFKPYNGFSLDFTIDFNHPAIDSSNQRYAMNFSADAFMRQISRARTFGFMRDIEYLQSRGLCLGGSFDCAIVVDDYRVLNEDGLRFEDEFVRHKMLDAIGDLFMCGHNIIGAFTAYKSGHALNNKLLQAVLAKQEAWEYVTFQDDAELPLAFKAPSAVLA

[7] = molecular target: T1, UDP-3-O-acyl-N-acetylglucosamine deacetylase; assay: Binding affinity to Escherichia coli LpxC assessed as dissociation constant by SPR analysis
[8] = Binding affinity to PD-L1 (unknown origin) assessed as dissociation constant by SPR analysis; set-up: species or system Homo sapiens
[9] = molecular target: Programmed cell death 1 ligand 1 (Homo sapiens) (UniProt Q9NZQ7); assay: Binding affinity to PD-L1 (unknown origin) assessed as association constant at equilibrium by ITC analysis
Sequence of Programmed cell death 1 ligand 1 (Homo sapiens) (Q9NZQ7 whole entry): as the sequence (Q9NZQ7 whole entry) above

[10] = molecular target: Programmed cell death 1 ligand 1 (Homo sapiens) (UniProt Q9NZQ7); assay: Binding affinity to PD-L1 (unknown origin) assessed as Change in enthalpy by ITC analysis
Klebsiella pneumoniae [11] = assay: Induction of intracellular ROS accumulation in Klebsiella pneumoniae ATCC 13883 incubated for 12 hrs by fluorescence microscopic analysis; format: functional, organism-based
Klebsiella pneumoniae [12] = assay: Antimicrobial activity against Klebsiella pneumoniae ATCC 13883 assessed as increase in percentage of bacterial cells by flow cytometry analysis; format: functional, organism-based
Klebsiella pneumoniae [13] = assay: Bactericidal activity against Klebsiella pneumoniae ATCC 13883 assessed as reduction in survival rate by colony counting method; format: functional
Klebsiella pneumoniae [14] = assay: Induction of morphological changes in Klebsiella pneumoniae ATCC 13883 assessed as reduction in cell membrane thickness measured for 24 hrs by transmission electron microscopy analysis; format: functional, organism-based
Klebsiella pneumoniae [15] = assay: Induction of morphological changes in Klebsiella pneumoniae ATCC 13883 assessed as reduction in cell wall thickness measured for 24 hrs by transmission electron microscopy analysis; format: functional, organism-based
Klebsiella pneumoniae [16] = assay: Induction of morphological changes in Klebsiella pneumoniae ATCC 13883 assessed as leakage in cellular contents measured for 48 hrs by transmission electron microscopy analysis; format: functional, organism-based
Klebsiella pneumoniae [17] = assay: Induction of morphological changes in Klebsiella pneumoniae ATCC 13883 assessed as leakage in cellular contents measured for 96 hrs by transmission electron microscopy analysis; format: functional, organism-based
Klebsiella pneumoniae [18] = assay: Antibacterial activity against Klebsiella pneumoniae ATCC 13883 infected in Kunming mouse model measured after 8 hrs; format: functional, organism-based
[19] = Toxicity in Kunming mouse assessed as side effect at 2 mg/kg, iv; format: organism-based; details: in vivo
[20] = Toxicity in Kunming mouse assessed as body weight loss at 2 mg/kg, iv; format: organism-based; details: in vivo
Klebsiella pneumoniae [21] = assay: Antibacterial activity against Klebsiella pneumoniae ATCC 13883 infected in Kunming mouse model assessed as reduction in alveolar space in lung at 2 mg/kg, iv by H and E staining based analysis; format: functional, organism-based
Klebsiella pneumoniae [22] = assay: Antibacterial activity against Klebsiella pneumoniae ATCC 13883 infected in Kunming mouse model assessed as reduction in bacterial proliferation at 2 mg/kg, iv; format: functional, organism-based
Klebsiella pneumoniae [23] = assay: Downregulation of PD-L1 expression in Klebsiella pneumoniae ATCC 13883 by Western blot analysis; format: functional
Klebsiella pneumoniae [24] = assay: Downregulation of PD-1 expression in Klebsiella pneumoniae ATCC 13883 by Western blot analysis; format: functional
Klebsiella pneumoniae [25] = assay: Downregulation of MMP9 expression in Klebsiella pneumoniae ATCC 13883 by Western blot analysis; format: functional
Klebsiella pneumoniae [26] = assay: Downregulation of NLRP3 expression in Klebsiella pneumoniae ATCC 13883 by Western blot analysis; format: functional
Klebsiella pneumoniae [27] = assay: Downregulation of IL-2 expression in Klebsiella pneumoniae ATCC 13883 by Western blot analysis; format: functional
Klebsiella pneumoniae [28] = assay: Downregulation of IFN-gamma expression in Klebsiella pneumoniae ATCC 13883 by Western blot analysis; format: functional
Klebsiella pneumoniae [29] = assay: Downregulation of NF-kappaB expression in Klebsiella pneumoniae ATCC 13883 by Western blot analysis; format: functional
Klebsiella pneumoniae [30] = assay: Downregulation of PD-L1 expression in Klebsiella pneumoniae ATCC 13883 by immunohistochemistry analysis; format: functional
Klebsiella pneumoniae [31] = assay: Downregulation of IL-2 expression in Klebsiella pneumoniae ATCC 13883 by immunohistochemistry analysis; format: functional
Klebsiella pneumoniae [32] = assay: Downregulation of IFN-gamma expression in Klebsiella pneumoniae ATCC 13883 by immunohistochemistry analysis; format: functional
[33] = Toxicity in Kunming mouse assessed as lung damage at 2 mg/kg, iv by H and E staining based analysis; format: organism-based; details: in vivo
[34] = Toxicity in Kunming mouse assessed as lung damage at 2 mg/kg, iv by masson staining based analysis; format: organism-based; details: in vivo
Klebsiella pneumoniae [35] = assay: Antibacterial activity against Klebsiella pneumoniae ATCC 13883 infected in Kunming mouse model assessed as organised collagen fibers in skin tissue at 2 mg/kg, iv by Masson's trichome staining based analysis; format: functional, organism-based
[36] = Toxicity in Kunming mouse assessed as change in AST level at 2 mg/kg, iv (reference value: 91.5 +/- 7.2 IU/L); format: organism-based; details: in vivo
[37] = Toxicity in Kunming mouse assessed as change in ALT level at 2 mg/kg, iv (reference value: 54.8 +/- 5.2 IU/L); format: organism-based; details: in vivo
[38] = Toxicity in Kunming mouse assessed as change in CRE level at 2 mg/kg, iv (reference value: 16.7 +/- 1.6 micromol/L); format: organism-based; details: in vivo
[39] = Toxicity in Kunming mouse assessed as change in BUN level at 2 mg/kg, iv (reference value: 11.2 +/- 2 mmol/L); format: organism-based; details: in vivo
[40] = Initial plasma concentration in rat at 2 mg/kg, iv measured upto 24 hrs by LC-MS/MS analysis; format: ADME, organism-based; details: plasma
[41] = Clearance in rat at 2 mg/kg, iv measured upto 24 hrs by LC-MS/MS analysis; format: ADME, organism-based; details: in vivo
[42] = Volume of distribution at steady state in rat at 2 mg/kg, iv measured upto 24 hrs by LC-MS/MS analysis; format: ADME, organism-based; details: in vivo, read-out: Vdss
[43] = Half life in rat at 2 mg/kg, iv measured upto 24 hrs by LC-MS/MS analysis; format: ADME, organism-based; details: in vivo
[44] = AUC (0 to t) in rat at 2 mg/kg, iv measured upto 24 hrs by LC-MS/MS analysis; format: ADME, organism-based; details: in vivo

SMILES: Cc1c(COc2cccc(CNC(C(=O)NO)C(C)O)c2)cccc1-c1ccccc1 (stereo not drawn)
- IC50 (HeLa): > 50000 nM
- IC50 [1]: 81 nM
- MIC50 (Klebsiella pneumoniae [2]): 0.25 µg/mL
- MIC50 (Escherichia coli): 0.5 µg/mL
- MIC50 (Salmonella typhimurium): 0.5 µg/mL
- MIC50 (Pseudomonas aeruginosa [3]): 0.5 µg/mL
- inhibition zone (IZ) (Klebsiella pneumoniae [4]): 14.7 mm
- IC50 (A549): > 50000 nM
- inhibition zone (IZ) (Pseudomonas aeruginosa [5]): 14.2 mm
- IC50 [6]: 5200 nM
- Kd [7]: 0.357 nM
- Kd [8]: 0.523 nM
- Ka [9]: 6.04 10^5/M
- deltaH [10]: 1.79 kcal/mol
- Activity (Klebsiella pneumoniae [11]): Active
- Activity (Klebsiella pneumoniae [12]): Active
- Activity (Klebsiella pneumoniae [13]): Active
- Activity (Klebsiella pneumoniae [14]): Active
- Activity (Klebsiella pneumoniae [15]): Active
- Activity (Klebsiella pneumoniae [16]): Active
- Activity (Klebsiella pneumoniae [17]): Active
- Activity (Klebsiella pneumoniae [18]): Active
- Activity [19]: Non-toxic
- Activity [20]: Non-toxic
- Activity (Klebsiella pneumoniae [21]): Active
- Activity (Klebsiella pneumoniae [22]): Active
- Activity (Klebsiella pneumoniae [23]): Active
- Activity (Klebsiella pneumoniae [24]): Active
- Activity (Klebsiella pneumoniae [25]): Active
- Activity (Klebsiella pneumoniae [26]): Active
- Activity (Klebsiella pneumoniae [27]): Active
- Activity (Klebsiella pneumoniae [28]): Active
- Activity (Klebsiella pneumoniae [29]): Active
- Activity (Klebsiella pneumoniae [30]): Active
- Activity (Klebsiella pneumoniae [31]): Active
- Activity (Klebsiella pneumoniae [32]): Active
- Activity [33]: Non-toxic
- Activity [34]: Non-toxic
- Activity (Klebsiella pneumoniae [35]): Active
- Activity [36]: 104.2 IU/L
- Activity [37]: 34.5 IU/L
- Activity [38]: 12.5 µmol/L
- Activity [39]: 8.6 mmol/L
- C0 at 24 h [40]: 649 ng/mL
- clearance [41]: 63.7 mL/min/kg
- Vd [42]: 5.71 L/kg
- half-life [43]: 2.39 h
- AUC(0-t) at 24 h [44]: 431 ng·h/mL
